These results are taken from ChEMBL document CHEMBL3352801, “Synthesis and lipid-lowering evaluation of 3-methyl-1H-purine-2,6-dione derivatives as potent and orally available anti-obesity agents” (Eur J Med Chem, 2014).

The term inhibition denotes the change of the read-out against control, counted positive when it falls.

The subject of one data set is 3T3-L1. In words: Inhibition of triglyceride accumulation in mouse 3T3L1 cells at 10 uM after 24 hrs. The format is functional. Particulars: for inhibition at 10 µM: 3T3-L1, 24 h.
The test system of data set [1] is Rattus norvegicus. The experiment in a line: Acute toxicity in Sprague-Dawley rat assessed as clinical signs at 2.5 g/kg, po as single dose measured after 7 days. The format is organism-based. As to conditions: in vivo, 2500 mg/kg, 168 h.
Data set [2] deals with Rattus norvegicus. The experiment in a line: Acute toxicity in Sprague-Dawley rat assessed as change in body weight at 2.5 g/kg, po as single dose measured after 7 days. Particulars: in vivo, 2500 mg/kg, 168 h. Format: organism-based.
Data set [3] deals with Rattus norvegicus. The experiment in a line: Acute toxicity in Sprague-Dawley rat assessed as mortality at 2.5 g/kg, po as single dose measured after 7 days. Format: organism-based. Particulars: in vivo, 2500 mg/kg, 168 h.
Data set [4] deals with Mus musculus. In words: Antiobesity activity in diet-induced obese C57Bl/6 mouse assessed as reduction in body weight at 50 mg/kg/day, po for 4 weeks administered with high-fat diet. The format is functional. Further details: scale not given: the % may be the effect or the level left.
Data set [5] concerns Mus musculus. In words: Toxicity in diet-induced obese C57Bl/6 mouse assessed as change in food intake at 50 mg/kg/day, po for 4 weeks administered with high-fat diet. Format: organism-based. Further details: route oral. As to conditions: in vivo, 672 h.
The test system of data set [6] is Mus musculus. The experiment in a line: Antiobesity activity in diet-induced obese C57Bl/6 mouse assessed as loss of liver weight at 50 mg/kg/day, po for 4 weeks administered with high-fat diet. The format is functional.
Data set [7] deals with Mus musculus. The experiment in a line: Antiobesity activity in diet-induced obese C57Bl/6 mouse assessed as loss of epididymal fat mass at 50 mg/kg/day, po for 4 weeks administered with high-fat diet. Format: functional.
The test system of data set [8] is Mus musculus. In words: Increase in glucose tolerance in diet-induced obese C57Bl/6 mouse at 50 mg/kg/day, po for 4 weeks by oral glucose tolerance test. Format: functional, organism-based.
Data set [9] deals with Mus musculus. The experiment in a line: Decrease in insulin resistance in diet-induced obese C57Bl/6 mouse assessed as induction of insulin secretion at 50 mg/kg/day, po for 4 weeks by insulin tolerance test. Format: functional, organism-based.
In data set [10] the test system is Mus musculus. In words: Antiobesity activity in diet-induced obese C57Bl/6 mouse assessed as reduction in fasting blood glucose at 50 mg/kg/day, po for 4 weeks administered with high-fat diet (reference value: 5.0 +/- 1.30 mM). The format is functional.
Data set [11] concerns Mus musculus. In words: Antiobesity activity in diet-induced obese C57Bl/6 mouse assessed as change in insulin level at 50 mg/kg/day, po for 4 weeks administered with high-fat diet (reference value: 11.85 +/- 2.6 mU). The format is functional.
Data set [12] concerns Mus musculus. The experiment in a line: Toxicity in diet-induced obese C57Bl/6 mouse assessed as change in ALT level at 50 mg/kg/day, po for 4 weeks administered with high-fat diet (reference value: 33.00 +/- 18.23 U/L). The format is organism-based. Further details: route oral. Particulars: in vivo, 672 h.
The subject of data set [13] is Mus musculus. In words: Toxicity in diet-induced obese C57Bl/6 mouse assessed as change in AST level at 50 mg/kg/day, po for 4 weeks administered with high-fat diet (reference value: 125.00 +/- 35.00 U/L). As to conditions: in vivo, 672 h. Format: organism-based. Further details: route oral.
In data set [14] the test system is Mus musculus. The experiment in a line: Antiobesity activity in diet-induced obese C57Bl/6 mouse assessed as reduction in triglyceride level at 50 mg/kg/day, po for 4 weeks administered with high-fat diet (reference value: 0.93 +/- 0.09 mM). The format is functional.
Data set [15] has as its system Mus musculus. In words: Antiobesity activity in diet-induced obese C57Bl/6 mouse assessed as reduction in LDL level at 50 mg/kg/day, po for 4 weeks administered with high-fat diet (reference value: 0.14 +/- 0.07 mM). The format is functional.
For data set [16], the system named is Mus musculus. In words: Antiobesity activity in diet-induced obese C57Bl/6 mouse assessed as increase in HDL level at 50 mg/kg/day, po for 4 weeks administered with high-fat diet (reference value: 0.60 +/- 0.17 mM). Format: functional.
Data set [17] concerns Mus musculus. The experiment in a line: Antiobesity activity in diet-induced obese C57Bl/6 mouse assessed as reduction in FFA level at 50 mg/kg/day, po for 4 weeks administered with high-fat diet (reference value: 19.55 +/- 1.57 ng/L). Format: functional.
Data set [18] relates to Mus musculus. The experiment in a line: Antiobesity activity in diet-induced obese C57Bl/6 mouse assessed as reduction in HOMA-IR value at 50 mg/kg/day, po for 4 weeks administered with high-fat diet (reference value: 3.06 +/- 0.85 no_unit). Format: functional.
Data set [19] concerns Mus musculus. The experiment in a line: Antiobesity activity in diet-induced obese C57Bl/6 mouse assessed as reduction in hepatic triglyceride level at 50 mg/kg/day, po for 4 weeks administered with high-fat diet by Oil Red O staining-based histological method. The format is functional. Further details: scale not given: the % may be the effect or the level left.
Data set [20] relates to Mus musculus. The experiment in a line: Antiobesity activity in diet-induced obese C57Bl/6 mouse assessed as reduction in fat accumulation in liver at 50 mg/kg/day, po for 4 weeks administered with high-fat diet by Oil Red O staining-based histological method. Format: functional, organism-based.
Data set [21] deals with Mus musculus. In words: Antiobesity activity in diet-induced obese C57Bl/6 mouse assessed as reduction in lipid droplets in liver at 50 mg/kg/day, po for 4 weeks administered with high-fat diet by Oil Red O staining-based histological method. Format: functional, organism-based.

The structures appear in SMILES notation. The source made the active and inactive calls. No cut-off for these calls is given here.

For the compound `CCOC(=O)CCCn1c(=O)c2c(nc(-c3ccc(OCCN(C)c4ccccn4)cc3)n2COC(=O)C(C)(C)C)n(C)c1=O`, in the data set on 3T3-L1, the inhibition entry was “inactive”.

On to `CN(CCOc1ccc(-c2nc3c(c(=O)n(Cc4ccccc4C#N)c(=O)n3C)n2CC(=O)O)cc1)c1ccccn1`, for which, in the data set with 3T3-L1, the inhibition entry is “inactive”.

As for `CC(C)=CCn1c(-c2ccc(OCCN(C)c3ccccn3)cc2)nc2c1c(=O)n(Cc1ccccc1C#N)c(=O)n2C`, in the data set on 3T3-L1, the inhibition result was “inactive”.

Turning to `CN(CCOc1ccc(-c2nc3c(c(=O)n(Cc4ccccc4C#N)c(=O)n3C)n2CCCC(=O)O)cc1)c1ccccn1`, in the data set with 3T3-L1, the inhibition result is “inactive”.

On to `C=CCn1c(=O)c2c(nc(-c3ccc(OCCN(C)c4ccccn4)cc3)n2CC=C)n(C)c1=O`, for which the inhibition result in the data set with 3T3-L1 was “inactive”.

On to `CCCCCn1c(-c2ccc(OCCN(C)c3ccccn3)cc2)nc2c1c(=O)n(Cc1ccccc1C#N)c(=O)n2C`, for which the inhibition entry with 3T3-L1 is “inactive”.

Take `CCCn1c(=O)c2c(nc(-c3ccc(OCCN(C)c4ccccn4)cc3)n2CCC)n(C)c1=O`: in the data set on 3T3-L1, the inhibition entry was “inactive”.

`CCOC(=O)CCCn1c(-c2ccc(OCCN(C)c3ccccn3)cc2)nc2c1c(=O)n(Cc1ccccc1C#N)c(=O)n2C`: in the data set on 3T3-L1, the inhibition result was “inactive”.

As for `COc1ccc(Cn2c(=O)c3[nH]c(-c4ccc(OCCN(C)c5ccccn5)cc4)nc3n(C)c2=O)cc1`, the inhibition result in the data set on 3T3-L1 is “inactive”.

Regarding `CN(CCOc1ccc(-c2nc3c(c(=O)n(Cc4ccccc4C#N)c(=O)n3C)n2CCO)cc1)c1ccccn1`, the inhibition result in the data set with 3T3-L1 was “Active”.

Turning to `CN(CCOc1ccc(-c2nc3c(c(=O)[nH]c(=O)n3C)n2COC(=O)C(C)(C)C)cc1)c1ccccn1`, the inhibition result in the data set on 3T3-L1 is “Active”.

With `CN(CCOc1ccc(-c2nc3c([nH]2)c(=O)n(CCCC(=O)O)c(=O)n3C)cc1)c1ccccn1`, in the data set with 3T3-L1, the inhibition entry was “inactive”.

With `CCn1c(-c2ccc(OCCN(C)c3ccccn3)cc2)nc2c1c(=O)n(Cc1ccc(F)cc1)c(=O)n2C`, the inhibition entry with 3T3-L1 is “inactive”.

For `CCn1c(=O)c2c(nc(-c3ccc(OCCN(C)c4ccccn4)cc3)n2CC)n(C)c1=O`, the inhibition result in the data set with 3T3-L1 is “inactive”.

As for `C=CCn1c(-c2ccc(OCCN(C)c3ccccn3)cc2)nc2c1c(=O)n(Cc1ccc(F)cc1)c(=O)n2C`, the inhibition entry in the data set on 3T3-L1 was “inactive”.

For `C=CCn1c(-c2ccc(OCCN(C)c3ccccn3)cc2)nc2c1c(=O)n(Cc1ccc(OC)cc1)c(=O)n2C`, the inhibition entry in the data set on 3T3-L1 was “inactive”.

Compound `NC(=O)c1ncn([C@@H]2O[C@H](CO)[C@@H](O)[C@H]2O)c1N` [ACADESINE] displayed an inhibition at 10 µM in the data set on 3T3-L1 of 51%.

On to `CCOC(=O)Cn1c(-c2ccc(OCCN(C)c3ccccn3)cc2)nc2c1c(=O)n(Cc1ccccc1C#N)c(=O)n2C`, for which the inhibition result in the data set on 3T3-L1 was “inactive”.

Regarding `C=CCn1c(-c2ccc(OCCN(C)c3ccccn3)cc2)nc2c1c(=O)n(Cc1ccccc1C#N)c(=O)n2C`, the inhibition result with 3T3-L1 is “inactive”.

With `CC(C)Cn1c(-c2ccc(OCCN(C)c3ccccn3)cc2)nc2c1c(=O)n(Cc1ccccc1C#N)c(=O)n2C`, in the data set with 3T3-L1, the inhibition result was “inactive”.

`CN(CCOc1ccc(-c2nc3c([nH]2)c(=O)n(CC(=O)O)c(=O)n3C)cc1)c1ccccn1`: the inhibition result with 3T3-L1 was “inactive”.

In the case of `CN(CCOc1ccc(-c2nc3c(c(=O)n(Cc4ccccc4C#N)c(=O)n3C)n2C)cc1)c1ccccn1`, the inhibition result in the data set with 3T3-L1 was “inactive”.

For the compound `CCCn1c(=O)c2[nH]c(-c3ccc(OCCN(C)c4ccccn4)cc3)nc2n(C)c1=O`, the inhibition entry in the data set with 3T3-L1 was “inactive”.

As to `C=CCn1c(=O)c2[nH]c(-c3ccc(OCCN(C)c4ccccn4)cc3)nc2n(C)c1=O`, the inhibition result in the data set on 3T3-L1 was “inactive”.

For `CCn1c(-c2ccc(OCCN(C)c3ccccn3)cc2)nc2c1c(=O)n(Cc1ccc(OC)cc1)c(=O)n2C`, the inhibition result in the data set with 3T3-L1 was “inactive”.

Regarding `CCCCn1c(-c2ccc(OCCN(C)c3ccccn3)cc2)nc2c1c(=O)n(Cc1ccccc1C#N)c(=O)n2C`, in the data set on 3T3-L1, the inhibition result was “Active”.

Regarding `CCOC(=O)Cn1c(=O)c2c(nc(-c3ccc(OCCN(C)c4ccccn4)cc3)n2COC(=O)C(C)(C)C)n(C)c1=O`, the inhibition entry in the data set with 3T3-L1 was “inactive”.

Turning to `CN(CCOc1ccc(-c2nc3c(c(=O)n(CC(=O)O)c(=O)n3C)n2CC(=O)O)cc1)c1ccccn1`, the inhibition result in the data set on 3T3-L1 is “Active”.

Turning to `CCCn1c(-c2ccc(OCCN(C)c3ccccn3)cc2)nc2c1c(=O)n(Cc1ccccc1C#N)c(=O)n2C`, in the data set with 3T3-L1, the inhibition at 10 µM amounted to 51.1%. Also, the Activity entry with Rattus norvegicus [1] is reported as “Non-toxic”; in the data set with Rattus norvegicus [2], “Non-toxic”; with Rattus norvegicus [3] it was “Non-toxic”; in the data set with Mus musculus [4], 7.64%; in the data set with Mus musculus [5] it was “Non-toxic”; in the data set on Mus musculus [6], 12.8%. Also, the Activity worked out at 4.76% in the data set on Mus musculus [7]; 7.25 mM in the data set on Mus musculus [10]; 12.04 mU in the data set on Mus musculus [11]; 86 U/L in the data set with Mus musculus [12]; 150 U/L in the data set with Mus musculus [13]; 1.15 mM with Mus musculus [14]. The Activity was found to be 0.16 mM in the data set on Mus musculus [15]; 0.96 mM with Mus musculus [16]; 24.43 ng/L with Mus musculus [17]; 3.99 in the data set on Mus musculus [18]; 5.15% in the data set with Mus musculus [19]. Further, the result in the data set with Mus musculus [8], with Mus musculus [9] and in the data set on Mus musculus [21] was inactive. Besides, in the data set on Mus musculus [20], the outcome was Active.

In the case of `CCCn1c(=O)c2c(nc(-c3ccc(OCCN(C)c4ccccn4)cc3)n2CC)n(C)c1=O`, the inhibition result in the data set with 3T3-L1 was “inactive”.
